According to US12673038B2, “Antimycotic methoxyflavone and fluconazole combination for inhibiting cryptococcus” (Karl-Franzens-Universität Graz, priority 2019, dated 2026):
Converted amounts (≈) assume the structure as drawn.

Legend:
S. cerevisiae BY4741 [1] = experiment: AnnexinV/PI co-staining for cell death markers (flow cytometry); type: cell-based, Saccharomyces cerevisiae; details: day 3 after treatment, indicated concentrations
Procedure: S. cerevisiae BY4741 cells were grown in SMD minimal media to mid-log phase and then treated with the indicated concentrations of 5-MF; control cells were treated with the same amount of solvent (DMSO). (A) Clonogenicity was assayed by plating 500 cells on YPD agar plates and colony forming units (CFUs) were counted to calculate survival rates. (B) Yeast cells were analyzed for cell death markers via AnnV/PI co-staining using flow cytometry. (C) The accumulation of reactive oxygen species was monitored by dihydrotethidium (DHE) to ethidium (Eth) conversion using flow cytometry. Assays in (A-C) were performed on day 3 after treatment. […] Data was analyzed by one-way ANOVA and corrected for multiple comparison using a Bonferroni post-hoc test. ns: not significant, * p<0.05, *** p<0.001, **** p<0.0001. […] Cell death markers were assessed by AnnexinV/PI co-staining. Therefore, 1-2×10^7 cells were harvested and treated with 3 μL […]; Sigma, Germany) and 15 μL glucuronidase/arylsulfatase (4.5 U/mL; Roche, Austria) for sphaeroblastation (60 min at 28° C. and 145 rpm). Resulting sphaeroblasts were co-stained with AnnexinV (Roche, Austria) and PI (Sigma, Germany) and analyzed via flow cytometry, using an LSRII Fortessa (BD, Ex: 488 nm; Em: 695 nm for PI and 530 nm for FITC). At least 30,000 cells were analyzed for each sample.

S. cerevisiae BY4741 [2] = experiment: ROS accumulation by DHE to ethidium conversion (flow cytometry); type: cell-based, Saccharomyces cerevisiae; details: day 3 after treatment
Procedure: S. cerevisiae BY4741 cells were grown in SMD minimal media to mid-log phase and then treated with the indicated concentrations of 5-MF; control cells were treated with the same amount of solvent (DMSO). (A) Clonogenicity was assayed by plating 500 cells on YPD agar plates and colony forming units (CFUs) were counted to calculate survival rates. (B) Yeast cells were analyzed for cell death markers via AnnV/PI co-staining using flow cytometry. (C) The accumulation of reactive oxygen species was monitored by dihydrotethidium (DHE) to ethidium (Eth) conversion using flow cytometry. Assays in (A-C) were performed on day 3 after treatment. […] Data was analyzed by one-way ANOVA and corrected for multiple comparison using a Bonferroni post-hoc test. ns: not significant, * p<0.05, *** p<0.001, **** p<0.0001. […] Accumulation of ROS was determined by dihydroethidium (DHE) staining as described for PI staining, using a 100 ng/mL DHE solution (Sigma, Germany) in PBS. After staining cells were sedimented again and resuspended in PBS to avoid dye deposition. For each sample, at least 30,000 cells were analyzed using flow cytometry (LSRII Fortessa, BD; Ex: 488 nm, Em: 585 nm).

S. cerevisiae = experiment: MIC determination, CLSI protocol M27-A3, OD490; type: cell-based; details: Saccharomyces cerevisiae; S. cerevisiae planktonic growth, 50% reduction vs control, mean±SEM
Procedure: S. cerevisiae BY4741 cells were grown in SMD minimal media to mid-log phase and then treated with the indicated concentrations of 5-MF; control cells were treated with the same amount of solvent (DMSO). (A) Clonogenicity was assayed by plating 500 cells on YPD agar plates and colony forming units (CFUs) were counted to calculate survival rates. (B) Yeast cells were analyzed for cell death markers via AnnV/PI co-staining using flow cytometry. (C) The accumulation of reactive oxygen species was monitored by dihydrotethidium (DHE) to ethidium (Eth) conversion using flow cytometry. Assays in (A-C) were performed on day 3 after treatment. […] Data was analyzed by one-way ANOVA and corrected for multiple comparison using a Bonferroni post-hoc test. ns: not significant, * p<0.05, *** p<0.001, **** p<0.0001. […] The minimal inhibitory concentration (MIC) was determined following the standard Clinical and Laboratory Standards Institute (CLSI) protocol M27 (Rex JH, and Clinical and Laboratory Standards Institute (2008). Reference method for broth dilution antifungal susceptibility testing of yeasts: approved standard, 3rd ed. National Committee for Clinical Laboratory Standards, Wayne, PA) for yeast strains or the standard CLSI protocol […] […] After incubation, OD490 values were measured using 96-well plate reader and growth capacity was analyzed by setting the corresponding control to 100%. […]

C. glabrata biofilms = experiment: Biofilm inhibition by plating (CFU of biofilm cells); type: cell-based, Candida glabrata; details: different concentrations of 5-MF
C. albicans = experiment: In vitro antifungal activity of flavone in combination with azoles, growth via OD490; type: cell-based, Candida albicans; details: OD490, flavone plus azole vs each alone

## COc1cccc2oc(-c3ccccc3)cc(=O)c12 [5-MF, 5-methoxyflavone]
S. cerevisiae BY4741 [1]
  cell death markers, PI-positive fraction (AnnV/PI co-staining): mainly increased the PI-positive fraction in a concentration-dependent manner
S. cerevisiae BY4741 [2]
  accumulation of reactive oxygen species (DHE to Eth conversion): causes accumulation of reactive oxygen species
S. cerevisiae
  MIC50: 90.6 ± 12.4 µM (≈ 22.9 µg/mL)
C. glabrata biofilms
  number of biofilm cells (CFUs on YPD agar): decreased in a concentration-dependent manner
C. albicans
  enhancement of the antifungal activity of azoles in the presence of the flavone: enhancement of the antifungal activity
